Results on 43 molecules are retold here after ChEMBL document CHEMBL3045663, “Synthesis and Activity of Novel Acaricidal/Insecticidal 2, 4-Diphenyl-1, 3-oxazolines” (J Pestic Sci, 2002).

≈ marks a conversion by molar mass, not a printed value.

Holding throughout (format): functional
For assay [1], the system named is Nephotettix cincticeps. Description: Insecticidal activity against Nephotettix cincticeps (green rice leafhopper) in compound treated rice seedlings assessed as mortality at 500 ppm.
For assay [2], the system named is Plutella xylostella. The experiment in a line: Insecticidal activity against Plutella xylostella (diamondback moth) in compound treated radish leaf assessed as mortality at 500 ppm.
The test system of assay [3] is Tetranychus urticae. Description: Acaricidal activity against Tetranychus urticae (two-spotted spider mite) in compound treated kidney bean leaf assessed as larvicidal activity.
Assay [4] deals with Myzus persicae. The experiment in a line: Insecticidal activity against Myzus persicae (green peach aphid) in compound treated radish leaf assessed as mortality at 500 ppm.

In the case of `CCOc1cc(C(C)C)ccc1C1COC(c2c(F)cccc2F)=N1` (configuration not stated), the mortality at 500 ppm in assay [1] is 100%; in assay [2] it was 60%; in assay [4], 100%. Further, the LC50 in assay [3] came to 0.01 µg/mL (≈ 0.029 µM).
As to `CCCOc1cc(C(C)C)ccc1C1COC(c2c(F)cccc2F)=N1` (configuration not stated), the mortality at 500 ppm in assay [1] came to 100%; in assay [2], 85%; in assay [4], 100%. Besides, in assay [3], the median lethal concentration (LC50) is under 0.001 µg/mL.
With `COc1cc(C(C)(C)C)ccc1C1COC(c2c(F)cccc2F)=N1` (configuration not stated), the mortality at 500 ppm amounted to 35% in assay [1], 85% in assay [2] and 100% in assay [4]. Also, the LC50 in assay [3] worked out at 0.001 µg/mL (≈ 0.0029 µM).
For the molecule `CCCOc1cc(C(C)(C)C)ccc1C1COC(c2c(F)cccc2F)=N1` (configuration not stated), the figures for the mortality at 500 ppm in assay [1], in assay [2] and in assay [4] were 60%, 85% and 100%, respectively. The LC50 in assay [3] was 0.001 µg/mL (≈ 0.00268 µM).
For `CCCCOc1cc(C(C)(C)C)ccc1C1COC(c2c(F)cccc2F)=N1` (configuration not stated), in that order: 0%, 35%, 100% and 0.01 µg/mL (≈ 0.0258 µM).
For `CCCCCCOc1cc(C(C)(C)C)ccc1C1COC(c2c(F)cccc2F)=N1` (configuration not stated), in that order: 60%, 100%, 10% and 0.1 µg/mL (≈ 0.241 µM).
For `CCCCCc1ccc(C2COC(c3c(F)cccc3F)=N2)c(OCC)c1` (configuration not stated), in that order: 100%, 35%, 85% and under 0.001 µg/mL.
Turning to `CCCCCc1ccc(C2COC(c3c(F)cccc3F)=N2)c(OCCC)c1` (configuration not stated), the mortality at 500 ppm in assay [1] turned out to be 60%; in assay [2] it was 85%; in assay [4], 85%. In assay [3], the LC50 came out at 0.001 µg/mL (≈ 0.00258 µM).
Consider `CCCCCCCCc1ccc(C2COC(c3c(F)cccc3F)=N2)c(OC)c1` (configuration not stated), for which the mortality at 500 ppm came to 0% in assay [1], 85% in assay [2] and 100% in assay [4]. Further, the LC50 in assay [3] is 0.01 µg/mL (≈ 0.0249 µM).
For `CCCCCCCCCc1ccc(C2COC(c3c(F)cccc3F)=N2)c(OC)c1` (configuration not stated), in that order: 10%, 100%, 100% and 0.001 µg/mL (≈ 0.00241 µM).
For `CCCCCCCCCCc1ccc(C2COC(c3c(F)cccc3F)=N2)c(OC)c1` (configuration not stated), in that order: 10%, 85%, 100% and 0.01 µg/mL (≈ 0.0233 µM).
For `CCc1ccc(C2COC(c3c(F)cccc3F)=N2)c(F)c1` (configuration not stated), in that order: 0%, 0%, 0% and 0.1 µg/mL (≈ 0.328 µM).
Consider `CCCCCCc1ccc(C2COC(c3c(F)cccc3F)=N2)c(F)c1` (configuration not stated), for which the results for the mortality at 500 ppm in assay [1], in assay [2] and in assay [4] were 60%, 100% and 100%, respectively. For the same molecule, the LC50 in assay [3] is under 0.001 µg/mL.
Consider `CCCCCCCc1ccc(C2COC(c3c(F)cccc3F)=N2)c(F)c1` (configuration not stated), for which the mortality at 500 ppm turned out to be 0% in assay [1], 100% in assay [2] and 100% in assay [4]. Further, in assay [3], the LC50 is under 0.001 µg/mL.
For `CCCCCCCCc1ccc(C2COC(c3c(F)cccc3F)=N2)c(F)c1` (configuration not stated), the mortality at 500 ppm in assay [1] came out at 0%; in assay [2] it was 100%; in assay [4], 100%. Also, in assay [3], the LC50 was under 0.001 µg/mL.
For `CCCCCCCCCCc1ccc(C2COC(c3c(F)cccc3F)=N2)c(F)c1` (configuration not stated), the mortality at 500 ppm in assay [1] amounted to 0%; in assay [2] it was 100%; in assay [4] it was 10%. For the same molecule, the LC50 in assay [3] came out at 0.001 µg/mL (≈ 0.0024 µM).
Turning to `CCCCCCCCCCCCc1ccc(C2COC(c3c(F)cccc3F)=N2)c(F)c1` (configuration not stated), the mortality at 500 ppm was found to be 0% in assay [1], 100% in assay [2] and 0% in assay [4]. Besides, in assay [3], the LC50 amounted to 0.01 µg/mL (≈ 0.0224 µM).
With `CCc1ccc(C2COC(c3c(F)cccc3F)=N2)c(Cl)c1` (configuration not stated), the mortality at 500 ppm in assay [1], in assay [2] and in assay [4] was 0% in each case. Also, the LC50 in assay [3] was found to be 0.001 µg/mL (≈ 0.00311 µM).
In the case of `CC(C)Cc1ccc(C2COC(c3c(F)cccc3F)=N2)c(Cl)c1` (configuration not stated), the mortality at 500 ppm in assay [1] is 60%; in assay [2], 100%; in assay [4], 100%. Also, the LC50 in assay [3] is under 0.001 µg/mL.
`CCCCCCc1ccc(C2COC(c3c(F)cccc3F)=N2)c(Cl)c1` (configuration not stated): the mortality at 500 ppm in assay [1], in assay [2] and in assay [4] was 100% in each case. Moreover, in assay [3], the median lethal concentration (LC50) was under 0.001 µg/mL.
Regarding `CCCCCCCCc1ccc(C2COC(c3c(F)cccc3F)=N2)c(Cl)c1` (configuration not stated), the mortality at 500 ppm in assay [1] is 0%; in assay [2] it was 85%; in assay [4] it was 100%. The LC50 in assay [3] is under 0.001 µg/mL.
For `CCCCCCCCCCc1ccc(C2COC(c3c(F)cccc3F)=N2)c(Cl)c1` (configuration not stated), in that order: 0%, 85%, 0% and 0.1 µg/mL (≈ 0.23 µM).
For `CCCCCCCCCCCCc1ccc(C2COC(c3c(F)cccc3F)=N2)c(Cl)c1` (configuration not stated), in that order: 0%, 60%, 0% and 0.1 µg/mL (≈ 0.216 µM).
In the case of `CC(C)Oc1ccc(C2COC(c3c(F)cccc3F)=N2)cc1` (configuration not stated), the values for the mortality at 500 ppm in assay [1], in assay [2] and in assay [4] were 0%, 0% and 100%, respectively. Moreover, in assay [3], the 50% lethal concentration (LC50) came out at 0.001 µg/mL (≈ 0.00315 µM).
As for `CCCCOc1ccc(C2COC(c3c(F)cccc3F)=N2)cc1` (configuration not stated), the mortality at 500 ppm was determined as 0% in assay [1], 0% in assay [2] and 100% in assay [4]. Besides, the 50% lethal concentration (LC50) in assay [3] is under 0.001 µg/mL.
`CCCCCCCCOc1ccc(C2COC(c3c(F)cccc3F)=N2)cc1` (configuration not stated): the results for the mortality at 500 ppm in assay [1], in assay [2] and in assay [4] were 0%, 60% and 85%, respectively. Further, in assay [3], the LC50 was under 0.001 µg/mL.
For `CCCCCCCCCCOc1ccc(C2COC(c3c(F)cccc3F)=N2)cc1` (configuration not stated), in that order: 10%, 100%, 100% and under 0.001 µg/mL.
For `CCCCCCCCCCCCCOc1ccc(C2COC(c3c(F)cccc3F)=N2)cc1` (configuration not stated), in that order: 0%, 35%, 85% and 0.001 µg/mL (≈ 0.00219 µM).
Turning to `CCCCCCCCCCCCCCOc1ccc(C2COC(c3c(F)cccc3F)=N2)cc1` (configuration not stated), the mortality at 500 ppm in assay [1] amounted to 10%; in assay [2], 85%; in assay [4] it was 60%. Further, the LC50 in assay [3] worked out at 0.01 µg/mL (≈ 0.0212 µM).
For `CSc1ccc(C2COC(c3c(F)cccc3F)=N2)cc1` (configuration not stated), in that order: 0%, 0%, 100% and 0.1 µg/mL (≈ 0.327 µM).
For `C[S+]([O-])c1ccc(C2COC(c3c(F)cccc3F)=N2)cc1` (configuration not stated), in that order: 0%, 60%, 60% and 10 µg/mL (≈ 31.1 µM).
For `CS(=O)(=O)c1ccc(C2COC(c3c(F)cccc3F)=N2)cc1` (configuration not stated), in that order: 0%, 60%, 85% and 100 µg/mL (≈ 296 µM).
`CC(C)Sc1ccc(C2COC(c3c(F)cccc3F)=N2)cc1` (configuration not stated): the mortality at 500 ppm in assay [1] turned out to be 10%; in assay [2], 10%; in assay [4], 85%. Further, the LC50 in assay [3] amounted to 0.1 µg/mL (≈ 0.3 µM).
As to `CCCCCCCCCSc1ccc(C2COC(c3c(F)cccc3F)=N2)cc1` (configuration not stated), the mortality at 500 ppm in assay [1] was found to be 0%; in assay [2], 85%; in assay [4], 60%. Besides, the LC50 in assay [3] was 0.01 µg/mL (≈ 0.0239 µM).
For `Fc1cccc(F)c1C1=NC(c2ccc(Br)cc2)CO1` (configuration not stated), in that order: 10%, 35%, 100% and 0.001 µg/mL (≈ 0.00296 µM).
For `Fc1cccc(F)c1C1=NC(c2ccc(C(F)(F)F)cc2)CO1` (configuration not stated), in that order: 60%, 85%, 100% and 0.01 µg/mL (≈ 0.0306 µM).
For `Fc1cccc(F)c1C1=NC(c2ccc(OC(F)(F)F)cc2)CO1` (configuration not stated), in that order: 35%, 85%, 100% and 0.001 µg/mL (≈ 0.00291 µM).
In the case of `Fc1cccc(F)c1C1=NC(c2ccc(OCC(F)(F)F)cc2)CO1` (configuration not stated), the mortality at 500 ppm in assay [1] stood at 100%; in assay [2], 35%; in assay [4], 100%. In addition, in assay [3], the LC50 was under 0.001 µg/mL.
Regarding `Oc1ccc(C2COC(c3c(F)cccc3F)=N2)cc1` (configuration not stated), the mortality at 500 ppm was determined as 60% in assay [1], 10% in assay [2] and 0% in assay [4]. Also, in assay [3], the LC50 was 10 µg/mL (≈ 36.3 µM).
For `CN(C)c1ccc(C2COC(c3c(F)cccc3F)=N2)cc1` (configuration not stated), in that order: 0%, 0%, 85% and 10 µg/mL (≈ 33.1 µM).
For `C[Si](C)(C)c1ccc(C2COC(c3c(F)cccc3F)=N2)cc1` (configuration not stated), in that order: 60%, 100%, 100% and under 0.001 µg/mL.
Take `Cc1ccc(C2COC(c3c(F)cccc3F)=N2)c(C)c1` (configuration not stated): the mortality at 500 ppm in assay [1] was found to be 100%; in assay [2], 35%; in assay [4] it was 100%. Besides, the LC50 in assay [3] was determined as 10 µg/mL (≈ 34.8 µM).
On to `CCCCCCCCc1ccc(C2COC(c3c(F)cccc3F)=N2)c(C)c1` (configuration not stated), for which the mortality at 500 ppm in assay [1], in assay [2] and in assay [4] was 100% in each case. In assay [3], the LC50 was under 0.001 µg/mL.
